Values of other authors, collected in patent US20200129574A1 (priority 2018, published 2020).

Tests used:
[1] = tested on: prostate cancer cells; details: in vitro
[2] = tested on: a6 and 134 integrins
[3] = tested on: several tumor cell types, including prostate cancer cell lines, and primary prostate tumor lines; details: several tumor cell types incl. prostate cancer cell lines and primary prostate tumor lines

Vitamin D
effect on invasion of prostate cancer cells [1]: decrease invasion
expression of a6 and 134 integrins [2]: decreased expression
effect on proliferation and differentiation of tumor cells [3]: inhibit proliferation and promote differentiation
